Laboratory results: ChEMBL document CHEMBL1152529, “Synthesis, antifungal, haemolytic and cytotoxic activities of a series of bis(alkylpyridinium)alkanes” (Bioorg Med Chem, 2009)
Converted amounts (≈) assume the structure as drawn. The source made the active and inactive calls. The calls are words filed in the database; no cut-off is given here.

Tests used:
A549 = test: Cytotoxicity against human A549 cells after 3 hrs by MTS assay; format: cell-based; details: A549, 3 h
Candida albicans = test: Antifungal activity against Candida albicans ATCC 10231 after 48 to 72 hrs by broth microdilution method; format: functional; details: Candida albicans, ATCC 10231; read-out: MIC
MDCK = test: Cytotoxicity against MDCK cells after 3 hrs by MTS assay; format: cell-based; details: Canis lupus familiaris
Cryptococcus neoformans = test: Antifungal activity against Cryptococcus neoformans ATCC 90112 after 48 to 72 hrs by broth microdilution method; format: functional; details: Cryptococcus neoformans, ATCC 90112; read-out: MIC
[1] = biological target: Phospholipase A2, major isoenzyme (Sus scrofa, UniProt P00592); test: Inhibition of porcine pancreatic PLA2 after 1 hr by radiometric method
[2] = system: Cryptococcus neoformans var. grubii H99; test: Inhibition of lysophospholipase acyltransferase activity of Cryptococcus neoformans var. grubii H99 PLB assessed as formation of radiolabeled dipalmitoyl phosphatidylcholine at 0.25 to 250 uM at pH 4 by radiometric assay
[3] = Cytotoxicity against human erythrocytes assessed as hemolysis after 1 hr; format: cell-based, Erythrocyte
[4] = system: Cryptococcus neoformans var. grubii H99; test: Inhibition of lysophospholipid fatty acyl chain hydrolysis activity of Cryptococcus neoformans var. grubii H99 PLB assessed as formation of radiolabeled free fatty acid at 0.25 to 250 uM at pH 4 by radiometric assay
[5] = Inhibition of phospholipid fatty acyl chain hydrolysis activity of Cryptococcus neoformans var. grubii H99 PLB assessed as formation of radiolabeled free fatty acid at pH 4 by radiometric assay
Pichia kudriavzevii = test: Antifungal activity against Candida krusei ATCC 6258 after 48 to 72 hrs by broth microdilution method; format: functional
Aspergillus terreus = test: Antifungal activity against Aspergillus terreus 05-202844 after 48 to 72 hrs by broth microdilution method; format: functional
Curvularia australiensis = test: Antifungal activity against Bipolaris australiensis 03-201798 after 48 to 72 hrs by broth microdilution method; format: functional
Aspergillus flavus = test: Antifungal activity against Aspergillus flavus ATCC 204304 after 48 to 72 hrs by broth microdilution method; format: functional
Nakaseomyces glabratus = test: Antifungal activity against Candida glabrata 04-202345 after 48 to 72 hrs by broth microdilution method; format: functional
Rhizopus arrhizus = test: Antifungal activity against Rhizopus oryzae 05-203111 after 48 to 72 hrs by broth microdilution method; format: functional
Scedosporium apiospermum = test: Antifungal activity against Scedosporium apiospermum 05-203100 after 48 to 72 hrs by broth microdilution method; format: functional
Candida parapsilosis = test: Antifungal activity against Candida parapsilosis ATCC 22019 after 48 to 72 hrs by broth microdilution method; format: functional; details: Lodderomyces parapsilosis
Aspergillus fumigatus = test: Antifungal activity against Aspergillus fumigatus ATCC 204305 after 48 to 72 hrs by broth microdilution method; format: functional
Lomentospora prolificans = test: Antifungal activity against Scedosporium prolificans 05-203060 after 48 to 72 hrs by broth microdilution method; format: functional
Exophiala spinifera = test: Antifungal activity against Exophiala spinifera 03-200803 after 48 to 72 hrs by broth microdilution method; format: functional

Chain of Phospholipase A2, major isoenzyme (P00592 whole entry): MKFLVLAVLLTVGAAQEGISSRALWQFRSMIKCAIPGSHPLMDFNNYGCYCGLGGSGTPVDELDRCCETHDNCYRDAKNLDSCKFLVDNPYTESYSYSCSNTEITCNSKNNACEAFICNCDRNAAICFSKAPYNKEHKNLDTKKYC

SMILES	IC50 (A549)	MIC (Candida albicans)	IC50 (MDCK)	MIC (Cryptococcus neoformans)	IC50 [1]	Activity [2]	HC50 at 1 h [3]	Activity [4]	IC50 [5]	further results
CC(C)c1cc[n+](CCCCCCCCCCCC[n+]2ccc(C(C)C)cc2)cc1	> 350 µM	22 µM	> 350 µM	44 µM						
OCc1cc[n+](CCCCCCCCCCCC[n+]2ccc(CO)cc2)cc1		88 µM		88 µM						
c1cc[n+](CCCCCCCCCCCC[n+]2ccccc2)cc1		44 µM		88 µM	> 250 µM	inactive	> 350 µM	inactive	> 250 µM	
CCCCc1cc[n+](CCCCCCCCCCCC[n+]2ccc(CCCC)cc2)cc1	215 µM	5.5 µM	150 µM	11 µM			> 350 µM			
CCCCC(CCCC)c1cc[n+](CCCCCCCCCCCC[n+]2ccc(C(CCCC)CCCC)c(C)c2)cc1C	10 µM	2.7 µM	10 µM	2.7 µM			31 µM			
c1ccc(CCCc2cc[n+](CCCCCCCCCCCC[n+]3ccc(CCCc4ccccc4)cc3)cc2)cc1	55 µM	2.7 µM	65 µM	2.7 µM	104 µM	inactive	67 µM	inactive	5 µM	
CCCc1cc[n+](CCCCCCCCCCCC[n+]2ccc(CCC)cc2)cc1		11 µM		44 µM						
CC(C)CCCc1cc[n+](CCCCCCCCCCCC[n+]2ccc(CCCC(C)C)cc2)cc1	54 µM	2.7 µM	62 µM	2.7 µM	> 250 µM	inactive	227 µM	inactive	11 µM	
CCCCCCCCc1cc[n+](CCCCCCCCCCCC[n+]2ccc(CCCCCCCC)cc2)cc1		2.7 µM		2.7 µM			98 µM			
CCCCC(CCCC)c1cc[n+](CCCCCCCCCCCC[n+]2ccc(C(CCCC)CCCC)cc2)cc1	55 µM	1.4 µM	56 µM	1.4 µM	53 µM	inactive	124 µM	inactive	5 µM	
CCc1cc[n+](CCCCCCCCCCCC[n+]2ccc(CC)cc2)cc1	> 350 µM	11 µM	> 350 µM	44 µM	> 250 µM	inactive		inactive	138 µM	
CCCCCc1cccc[n+]1CCCCCCCCCCCC[n+]1ccccc1CCCCC	> 350 µM	2.7 µM	315 µM	2.7 µM			> 350 µM			
CC(C)(C)c1cc[n+](CCCCCCCCCCCC[n+]2ccc(C(C)(C)C)cc2)cc1	> 350 µM	22 µM	> 350 µM	11 µM	> 250 µM	inactive	> 350 µM	inactive	34 µM	
CCCCCc1cc[n+](CCCCCCCCCCCC[n+]2ccc(CCCCC)c(C)c2)cc1C	122 µM	2.7 µM	145 µM	1.4 µM	134 µM	inactive	> 350 µM	inactive	8 µM	
CCCCCc1cc[n+](CCCCCCCCCCCC[n+]2ccc(CCCCC)cc2)cc1 [listing 1 of 2 here]						inactive		inactive		
C=CCCCc1cc[n+](CCCCCCCCCCCC[n+]2ccc(CCCC=C)cc2)cc1	> 350 µM	2.7 µM	> 350 µM	5.5 µM	56 µM	inactive	> 350 µM	inactive	47 µM	
CCc1ccc[n+](CCCCCCCCCCCC[n+]2cccc(CC)c2)c1		44 µM		88 µM						
Cc1cc[n+](CCCCCCCCCCCC[n+]2ccc(C)cc2)cc1	> 350 µM	22 µM	> 350 µM	88 µM	> 250 µM	inactive		inactive	> 250 µM	
CC(C)CCc1cc[n+](CCCCCCCCCCCC[n+]2ccc(CCC(C)C)cc2)cc1	> 350 µM	5.5 µM	> 350 µM	2.7 µM	67 µM	inactive	> 350 µM	inactive	57 µM	
OCCCc1cc[n+](CCCCCCCCCCCC[n+]2ccc(CCCO)cc2)cc1	> 350 µM	88 µM	> 350 µM	88 µM	> 250 µM	inactive	> 350 µM	inactive	> 250 µM	
CCCCCc1cc[n+](CCCCCCCCCCCC[n+]2ccc(CCCCC)cc2)cc1 [listing 2 of 2 here]		2.7 µM		1.4 µM						
CCCCCCc1cc[n+](CCCCCCCCCCCC[n+]2ccc(CCCCCC)cc2)cc1	48 µM	1.4 µM	61 µM	2.7 µM	> 250 µM	inactive	129 µM	inactive	6 µM	
c1ccc(Cc2cc[n+](CCCCCCCCCCCC[n+]3ccc(Cc4ccccc4)cc3)cc2)cc1		11 µM		22 µM						
CC(C)(C)CCc1cc[n+](CCCCCCCCCCCC[n+]2ccc(CCC(C)(C)C)cc2)cc1	105 µM	5.5 µM	135 µM	2.7 µM			> 350 µM			
CCCCCc1ccc[n+](CCCCCCCCCCCC[n+]2cccc(CCCCC)c2)c1		5.5 µM		11 µM			> 350 µM			
C[C@@H]1[C@H](O)[C@@H](C)/C=C/C=C/C=C/C=C/C=C/C=C/C=C/[C@H](O[C@@H]2O[C@H](C)[C@@H](O)[C@H](N)[C@@H]2O)C[C@@H]2O[C@](O)(C[C@@H](O)C[C@@H](O)[C@H](O)CC[C@@H](O)C[C@@H](O)CC(=O)O[C@H]1C)C[C@H](O)[C@H]2C(=O)O [AMPHOTERICIN B]		0.54 µM (≈ 0.499 µg/mL)		0.54 µM (≈ 0.499 µg/mL)						MIC (Pichia kudriavzevii): 0.54 µM (≈ 0.499 µg/mL); MIC (Aspergillus terreus): 1.1 µM (≈ 1.02 µg/mL); MIC (Curvularia australiensis): 0.03 µM (≈ 0.0277 µg/mL); MIC (Aspergillus flavus): 0.54 µM (≈ 0.499 µg/mL); MIC (Nakaseomyces glabratus): 1.1 µM (≈ 1.02 µg/mL); MIC (Rhizopus arrhizus): 0.06 µM (≈ 0.0554 µg/mL); MIC (Scedosporium apiospermum): 17 µM (≈ 15.7 µg/mL); MIC (Candida parapsilosis): 0.13 µM (≈ 0.12 µg/mL); MIC (Aspergillus fumigatus): 0.54 µM (≈ 0.499 µg/mL); MIC (Lomentospora prolificans): 4.3 µM (≈ 3.97 µg/mL); MIC (Exophiala spinifera): 0.27 µM (≈ 0.25 µg/mL)
